Data taken from patent US20010007856A1, “METHOD FOR PREVENTING AND TREATING AT A SUPERACUTE PHASE, AGAINST NEUROLOGICAL DEFICITS OR NEURONAL DEATH IN BRAIN ISCHEMIA AND PATHOLOGICAL CONDITIONS” (priority 1997, published 2001).
Where two headings read alike, the source gives them in different places.

Legend:
rhesus monkeys [1] = conditions: oral, 3 months; 300, 1,000, 3,000 mg/kg/day; cited from earlier work
cultured cells = conditions: cited from earlier work
solubility (descriptive) = assay type: physicochemical
From the text: (§1) L-threo-DOPS, whose molecular formula is C9H11NO5, is white or light brown crystals or crystalline powder with no taste or odor. […] It is difficult to measure a clear melting point or decomposition point for L-threo-DOPS. […] DL-threo-DOPS, which contains 50% L-threo-DOPS, can also be used in this invention. Hereafter, L-threo-DOPS and DL-threo-DOPS are generically denoted as “threo-DOPS”.

[2] = system: SD rats (male and female); conditions: oral; 60, 200, 600 mg/kg/day; cited from earlier work
SD rats [3] = conditions: oral, 12 months, cited from earlier work
mice = conditions: mouse, in vivo; cited from earlier work
beagle dogs [4] = conditions: oral, 3 months; 200, 600, 2,000 mg/kg/day; cited from earlier work
rhesus monkeys [5] = conditions: cited from earlier work
[6] = system: patients with brain ischemia (subarachnoid hemorrhage, cerebral infarction, brain injury, brain hemorrhage); conditions: human, in vivo
Procedure: In order further to examine the neuroprotective effect in cerebral ischemia indicated from the experiment, a clinical preliminary study was conducted.
After the neck clipping surgery, 500 mg/day of “DOPS” (registered trademark, Sumitomo Pharmaceuticals Co., Ltd., Japan) was administered for 5 days.
Neck clipping was conducted on the day of onset, when the patient's condition was Hunt & Kosnic Grade IV. From the third day after subarachnoid hemorrhage, 500 mg/day of “DOPS” (registered trademark) was administered for 5 days.
Neck clipping was conducted on the day of onset, when the patient's condition was Hunt & Kosnic Grade IV. Since consciousness disturbance (semicoma), hyperventilation, and reduced light reflex were observed on the sixth day after surgery, a diagnosis of impending cerebral herniation was established and 500 mg/day of “DOPS” (registered trademark) was administered for 5 days. […] Soon after discontinuation of administration, mydriasis was rapidly observed.
Left hemiplegia first appeared and consciousness disturbance (JCS:100) and mydriasis of the right eye were observed 2 days later. Immediately after that, external and internal decompressions was performed and 300 mg/day of “DOPS” (registered trademark) was simultaneously administered for 5 days.
From the time immediately after injury, the patient developed mydriasis in both eyes and deep coma due to brainstem hernia. […]

[7] = system: middle brain artery (MC) occulusion model Wistar rats; assay: transient cerebral ischemia, middle brain artery (MC) occlusion model, infarction volume; assay type: in vivo; conditions: for reduction of size of cerebral infarction: MC occlusion 1 hour
SD rats [8] = conditions: oral, 3 months, cited from earlier work
beagle dogs [9] = conditions: cited from earlier work
beagle dogs [10] = conditions: oral, 12 months; 125, 500, 2,000 mg/kg/day; cited from earlier work
Mice, ICR strain = conditions: cited from earlier work; for LD50: mouse, in vivo
SD rats [11] = conditions: oral; 60, 200, 600 mg/kg/day; cited from earlier work
microorganisms = conditions: cited from earlier work
physchem = assay type: physicochemical
From the text: as §1

[12] = system: guinea pigs (Hartley strain, male); conditions: guinea pig, in vivo; cited from earlier work
rabbits = conditions: oral; 30, 100, 300 mg/kg/day; cited from earlier work
SD rats [13] = conditions: oral, 60, 200, 600 mg/kg/day, cited from earlier work
Rats, SD strain = conditions: cited from earlier work
[14] = prior art feature; cited from earlier work

N[C@H](C(=O)O)[C@H](O)c1ccc(O)c(O)c1 [L-threo-DOPS, (−)-(2S, 3R)-2-amino-3-hydroxy-3-(3,4-dihydroxyphenyl) propionic acid]
abnormality in various observations and testing evaluations (rhesus monkeys [1]): no abnormality was observed | mutagenicity, chromosome abnormality (cultured cells): no mutagenicity was observed | solubility in ether, ethanol and glacial acetic acid (solubility (descriptive); ether, ethanol, glacial acetic acid): dissolves very little | solubility in water (solubility (descriptive); water): dissolves only slightly | influence on mating rate, conception rate, nidation number, embryo/neonate death, teratogenic actions or fetal development [2]: no influence was observed | dose with suppression of weight increases, increase in thymus weight, necrosis of kidney uriniferous tubuli, degeneration of kidney glomeruli, etc. (SD rats [3]; 10, 30, 100, 300 mg/kg/day): ≥ 30 mg/kg/day | dose with drooling, myocarditis and calcification of cardiac muscles, etc. (SD rats [3]): ≥ 100 mg/kg/day | mutagenicity, micronucleus (mice): no mutagenicity was observed | abnormality in various observations and testing evaluations (beagle dogs [4]): no abnormality was observed | LD50 (rhesus monkeys [5]; rhesus monkey, in vivo, po): >5000 mg/kg | general symptoms in acute toxicity (rhesus monkeys [5]; rhesus monkeys): no abnormal symptom was observed | adverse effects [6]: No adverse effects were observed | reduction of size of cerebral infarction ([7]; L-threo-DOPS 400 mg/kg (+ BSZ 2 mg/kg) i.p. 30 minutes before occlusion, FIG. 1): about 40% | reduction of size of cerebral infarction ([7]; L-threo-DOPS 400 mg/kg (+ BSZ 2 mg/kg) i.p. one hour after occlusion, FIG. 2): about 40% | regression effect on cerebral infarction ([7]; MC occlusion 24 hours, L-threo-DOPS 400 mg/kg (+ BSZ 2 mg/kg) i.p. one hour after occlusion, FIG. 3): no regression effect was observed | dose with suppressed voluntary motions, necrosis of kidney uriniferous tubuli, necrosis of cardiac muscles, etc. (SD rats [8]; 60, 300, 1,500 mg/kg/day): ≥ 60 mg/kg/day | dose with drooling (SD rats [8]): 1,500 mg/kg/day | dose with suppression of weight increases and such (SD rats [8]): ≥ 300 mg/kg/day | LD50 (beagle dogs [9]; dog, in vivo, po): >5000 mg/kg | general symptoms in acute toxicity (beagle dogs [9]; dogs): no abnormal symptom was observed | abnormality in various observations and testing evaluations (beagle dogs [10]): no abnormality was observed | general symptoms in acute toxicity (Mice, ICR strain; mice): reduced voluntary motions, deep breathing and bradypnea | LD50 (Mice, ICR strain; iv): >100 mg/kg | LD50 (Mice, ICR strain; po): >10000 mg/kg | LD50 (Mice, ICR strain): >10000 mg/kg | dose with shortening of the pregnancy period (SD rats [11]): 600 mg/kg | dose with suppression of neonatal development after birth (SD rats [11]): ≥ 60 mg/kg | other influence (SD rats [11]): No other influence was observed | mutagenicity, back mutation (microorganisms): no mutagenicity was observed | pKa (physchem): 7.88 | Endodermoreaction [12]: negative | PCA reaction [12]: negative | intra-gel sedimentation reaction [12]: negative | systemic anaphylaxis reaction [12]: negative | influence on the rabbits (rabbits): no influence on the rabbits was observed | other influence (SD rats [13]): No other influence was observed | dose with lower body weights of fetuses and increased occurrence of undulating ribs (SD rats [13]; restorable after birth): ≥ 200 mg/kg | LD50 (Rats, SD strain; rat, in vivo, po): >10000 mg/kg | general symptoms in acute toxicity (Rats, SD strain; rats): reduced voluntary motions, deep breathing and bradypnea

N[C@H](C(=O)O)[C@H](O)c1ccc(O)c(O)c1 [threo-DOPS]
passage through the blood-brain barrier [14]: passes through the blood-brain barrier into the brain
